Tests used:
Experiment in all cases: Caliper, Mobility shift assay off-chip
AKT1 (human) = AKT1 (human) (UniProt P31749)
AKT3 (human) = AKT3 (human) (UniProt Q9Y243)
AURKB (human) = AURKB (human) (UniProt Q96GD4)
AXL (human) = AXL (human) (UniProt P30530)
CAMK4 (human) = CAMK4 (human) (UniProt Q16566)
CLK3 (human) = CLK3 (human) (UniProt P49761)
CSNK1G3 (human) = CSNK1G3 (human) (UniProt Q9Y6M4)
EPHA3 (human) = EPHA3 (human) (UniProt P29320)
EPHA4 (human) = EPHA4 (human) (UniProt P54764)
EPHA6 (human) = EPHA6 (human) (UniProt Q9UF33)
EPHA8 (human) = EPHA8 (human) (UniProt P29322)
FLT3 (human) = FLT3 (human) (UniProt P36888)
GSK3A (human) = GSK3A (human) (UniProt P49840)
HCK (human) = HCK (human) (UniProt P08631)
INSRR (human) = INSRR (human) (UniProt P14616)
MAPK13 (human) = MAPK13 (human) (UniProt O15264)
MAPK3 (human) = MAPK3 (human) (UniProt P27361)
MAPK8 (human) = MAPK8 (human) (UniProt P45983)
MAPK9 (human) = MAPK9 (human) (UniProt P45984)
MAPKAPK3 (human) = MAPKAPK3 (human) (UniProt Q16644)
MERTK (human) = MERTK (human) (UniProt Q12866)
MKNK1 (human) = MKNK1 (human) (UniProt Q9BUB5)
NTRK1 (human) = NTRK1 (human) (UniProt P04629)
PDK4 (human) = PDK4 (human) (UniProt Q16654)
PRKACB (human) = PRKACB (human) (UniProt P22694)
RET (human) = RET (human) (UniProt P07949)
ROCK2 (human) = ROCK2 (human) (UniProt O75116)
RPS6KA1 KD1 KD2 (human) = RPS6KA1 KD1 KD2 (human) (UniProt Q15418)
RPS6KA2 KD1 KD2 (human) = RPS6KA2 KD1 KD2 (human) (UniProt Q15349)
RPS6KA3 KD1 KD2 (human) = RPS6KA3 KD1 KD2 (human) (UniProt P51812)
SGK1 (human) = SGK1 (human) (UniProt O00141)
STK38L (human) = STK38L (human) (UniProt Q9Y2H1)
STK4 (human) = STK4 (human) (UniProt Q13043)
TBK1 (human) = TBK1 (human) (UniProt Q9UHD2)
Sequence of TBK1 (human) (Q9UHD2 whole entry, looked up): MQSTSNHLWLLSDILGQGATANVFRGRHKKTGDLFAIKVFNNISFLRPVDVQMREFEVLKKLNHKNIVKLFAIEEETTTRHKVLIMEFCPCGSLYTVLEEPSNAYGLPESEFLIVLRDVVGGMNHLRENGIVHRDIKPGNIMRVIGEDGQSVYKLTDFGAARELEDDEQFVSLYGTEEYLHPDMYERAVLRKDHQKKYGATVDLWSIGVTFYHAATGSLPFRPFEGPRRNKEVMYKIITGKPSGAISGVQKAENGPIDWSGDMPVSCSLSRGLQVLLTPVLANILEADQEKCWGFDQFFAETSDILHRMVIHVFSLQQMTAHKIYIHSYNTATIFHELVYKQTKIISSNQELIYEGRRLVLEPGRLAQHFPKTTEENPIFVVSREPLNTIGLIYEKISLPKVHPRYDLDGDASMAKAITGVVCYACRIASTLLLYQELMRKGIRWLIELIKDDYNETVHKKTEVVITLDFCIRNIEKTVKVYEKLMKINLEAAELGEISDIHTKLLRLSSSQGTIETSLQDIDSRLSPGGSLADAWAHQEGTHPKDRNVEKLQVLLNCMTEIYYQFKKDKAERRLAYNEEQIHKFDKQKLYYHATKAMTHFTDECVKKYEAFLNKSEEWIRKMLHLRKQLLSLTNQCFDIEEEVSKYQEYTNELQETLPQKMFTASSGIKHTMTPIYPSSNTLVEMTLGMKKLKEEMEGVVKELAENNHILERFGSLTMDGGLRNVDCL

Sequence of AKT3 (human) (Q9Y243 whole entry, looked up): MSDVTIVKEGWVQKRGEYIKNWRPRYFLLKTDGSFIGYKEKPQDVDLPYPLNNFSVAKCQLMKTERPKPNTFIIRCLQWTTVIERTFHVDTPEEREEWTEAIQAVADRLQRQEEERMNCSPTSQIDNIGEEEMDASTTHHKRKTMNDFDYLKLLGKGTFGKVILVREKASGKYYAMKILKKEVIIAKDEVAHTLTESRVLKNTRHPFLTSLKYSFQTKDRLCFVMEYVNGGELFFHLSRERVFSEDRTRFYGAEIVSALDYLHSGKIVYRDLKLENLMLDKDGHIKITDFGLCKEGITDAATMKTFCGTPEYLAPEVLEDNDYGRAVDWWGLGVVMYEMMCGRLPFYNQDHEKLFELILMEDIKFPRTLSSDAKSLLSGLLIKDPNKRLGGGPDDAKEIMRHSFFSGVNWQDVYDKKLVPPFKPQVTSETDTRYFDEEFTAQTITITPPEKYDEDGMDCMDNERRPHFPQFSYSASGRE
Sequence of MAPK13 (human) (O15264 whole entry, looked up): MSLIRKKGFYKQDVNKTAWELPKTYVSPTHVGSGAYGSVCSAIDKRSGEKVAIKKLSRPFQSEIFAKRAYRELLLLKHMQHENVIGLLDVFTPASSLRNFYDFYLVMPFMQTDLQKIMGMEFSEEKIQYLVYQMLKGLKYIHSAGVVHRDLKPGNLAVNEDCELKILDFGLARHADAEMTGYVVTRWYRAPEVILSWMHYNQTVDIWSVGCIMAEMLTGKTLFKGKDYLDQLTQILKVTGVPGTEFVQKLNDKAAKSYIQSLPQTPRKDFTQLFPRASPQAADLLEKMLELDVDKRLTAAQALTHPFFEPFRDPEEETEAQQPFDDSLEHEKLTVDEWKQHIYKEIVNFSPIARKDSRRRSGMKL
Sequence of GSK3A (human) (P49840 whole entry, looked up): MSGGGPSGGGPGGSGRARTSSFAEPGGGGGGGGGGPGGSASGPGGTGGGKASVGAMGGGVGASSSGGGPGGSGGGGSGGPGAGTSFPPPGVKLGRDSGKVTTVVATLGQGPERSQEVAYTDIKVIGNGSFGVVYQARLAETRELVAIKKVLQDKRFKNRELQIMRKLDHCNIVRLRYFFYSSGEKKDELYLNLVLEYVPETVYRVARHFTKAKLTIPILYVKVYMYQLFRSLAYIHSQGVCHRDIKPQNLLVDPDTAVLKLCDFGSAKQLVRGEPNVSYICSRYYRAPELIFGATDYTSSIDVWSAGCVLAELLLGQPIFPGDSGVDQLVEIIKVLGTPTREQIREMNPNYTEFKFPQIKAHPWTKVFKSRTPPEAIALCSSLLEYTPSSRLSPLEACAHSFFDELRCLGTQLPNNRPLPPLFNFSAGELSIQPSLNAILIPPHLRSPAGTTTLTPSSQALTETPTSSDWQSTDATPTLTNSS
Sequence of MKNK1 (human) (Q9BUB5 whole entry, looked up): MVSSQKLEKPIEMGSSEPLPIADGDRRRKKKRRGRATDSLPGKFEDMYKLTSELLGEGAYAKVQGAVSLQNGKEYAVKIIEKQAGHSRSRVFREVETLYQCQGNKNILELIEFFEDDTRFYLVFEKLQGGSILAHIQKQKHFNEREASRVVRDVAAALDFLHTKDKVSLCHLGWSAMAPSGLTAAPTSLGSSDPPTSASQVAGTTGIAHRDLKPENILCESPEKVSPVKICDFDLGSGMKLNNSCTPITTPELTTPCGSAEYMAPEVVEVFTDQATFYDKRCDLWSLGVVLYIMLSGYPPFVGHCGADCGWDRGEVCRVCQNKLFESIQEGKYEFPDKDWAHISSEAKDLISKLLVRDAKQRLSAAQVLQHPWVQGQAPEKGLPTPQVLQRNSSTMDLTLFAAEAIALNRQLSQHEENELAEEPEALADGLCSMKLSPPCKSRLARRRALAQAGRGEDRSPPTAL
Sequence of FLT3 (human) (P36888 whole entry, looked up): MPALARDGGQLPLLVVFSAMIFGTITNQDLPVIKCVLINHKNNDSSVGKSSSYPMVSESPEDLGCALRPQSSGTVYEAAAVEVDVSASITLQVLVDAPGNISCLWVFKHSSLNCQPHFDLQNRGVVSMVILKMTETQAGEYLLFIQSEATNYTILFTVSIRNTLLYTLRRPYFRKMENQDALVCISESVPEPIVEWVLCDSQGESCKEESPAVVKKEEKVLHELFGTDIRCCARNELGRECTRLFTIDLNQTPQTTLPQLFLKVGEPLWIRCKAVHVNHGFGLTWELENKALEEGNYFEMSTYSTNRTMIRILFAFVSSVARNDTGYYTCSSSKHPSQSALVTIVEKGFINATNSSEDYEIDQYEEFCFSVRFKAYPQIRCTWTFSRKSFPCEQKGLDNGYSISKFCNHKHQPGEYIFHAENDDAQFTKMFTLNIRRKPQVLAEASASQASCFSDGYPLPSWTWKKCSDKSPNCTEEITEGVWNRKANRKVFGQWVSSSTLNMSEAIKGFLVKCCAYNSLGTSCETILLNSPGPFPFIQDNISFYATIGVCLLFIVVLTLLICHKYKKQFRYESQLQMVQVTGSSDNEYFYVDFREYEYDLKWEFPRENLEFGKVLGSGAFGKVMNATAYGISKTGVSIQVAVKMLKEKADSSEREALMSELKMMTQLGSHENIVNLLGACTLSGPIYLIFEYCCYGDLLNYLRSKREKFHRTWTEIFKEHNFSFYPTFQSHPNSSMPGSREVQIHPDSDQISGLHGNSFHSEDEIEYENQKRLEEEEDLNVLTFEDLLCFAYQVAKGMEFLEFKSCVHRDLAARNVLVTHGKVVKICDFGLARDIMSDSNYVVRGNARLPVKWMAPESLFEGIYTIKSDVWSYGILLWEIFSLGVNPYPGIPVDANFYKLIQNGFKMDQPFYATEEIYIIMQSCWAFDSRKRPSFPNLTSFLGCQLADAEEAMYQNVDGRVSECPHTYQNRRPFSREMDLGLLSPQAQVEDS
Sequence of AKT1 (human) (P31749 whole entry, looked up): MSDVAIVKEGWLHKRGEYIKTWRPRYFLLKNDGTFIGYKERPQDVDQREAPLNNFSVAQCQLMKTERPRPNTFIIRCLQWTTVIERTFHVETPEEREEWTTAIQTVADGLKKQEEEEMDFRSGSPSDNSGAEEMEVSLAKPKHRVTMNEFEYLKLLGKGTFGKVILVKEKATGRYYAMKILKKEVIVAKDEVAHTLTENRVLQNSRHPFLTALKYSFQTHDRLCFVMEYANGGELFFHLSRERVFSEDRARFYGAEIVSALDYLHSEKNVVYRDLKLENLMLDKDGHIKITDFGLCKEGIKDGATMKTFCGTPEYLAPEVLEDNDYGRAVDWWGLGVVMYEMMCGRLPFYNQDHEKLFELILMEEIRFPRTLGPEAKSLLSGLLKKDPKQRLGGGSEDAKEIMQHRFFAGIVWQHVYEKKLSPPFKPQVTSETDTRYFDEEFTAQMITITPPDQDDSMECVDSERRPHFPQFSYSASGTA
Sequence of AURKB (human) (Q96GD4 whole entry, looked up): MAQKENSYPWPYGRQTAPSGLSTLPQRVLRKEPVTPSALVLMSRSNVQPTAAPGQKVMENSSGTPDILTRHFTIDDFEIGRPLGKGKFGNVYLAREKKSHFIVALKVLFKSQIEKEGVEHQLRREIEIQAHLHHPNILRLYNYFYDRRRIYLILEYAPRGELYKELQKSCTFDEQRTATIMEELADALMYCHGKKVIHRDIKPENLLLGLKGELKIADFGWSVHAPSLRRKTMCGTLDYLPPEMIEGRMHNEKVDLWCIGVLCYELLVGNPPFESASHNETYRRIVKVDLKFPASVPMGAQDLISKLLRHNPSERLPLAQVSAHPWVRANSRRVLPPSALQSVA
Sequence of STK4 (human) (Q13043 whole entry, looked up): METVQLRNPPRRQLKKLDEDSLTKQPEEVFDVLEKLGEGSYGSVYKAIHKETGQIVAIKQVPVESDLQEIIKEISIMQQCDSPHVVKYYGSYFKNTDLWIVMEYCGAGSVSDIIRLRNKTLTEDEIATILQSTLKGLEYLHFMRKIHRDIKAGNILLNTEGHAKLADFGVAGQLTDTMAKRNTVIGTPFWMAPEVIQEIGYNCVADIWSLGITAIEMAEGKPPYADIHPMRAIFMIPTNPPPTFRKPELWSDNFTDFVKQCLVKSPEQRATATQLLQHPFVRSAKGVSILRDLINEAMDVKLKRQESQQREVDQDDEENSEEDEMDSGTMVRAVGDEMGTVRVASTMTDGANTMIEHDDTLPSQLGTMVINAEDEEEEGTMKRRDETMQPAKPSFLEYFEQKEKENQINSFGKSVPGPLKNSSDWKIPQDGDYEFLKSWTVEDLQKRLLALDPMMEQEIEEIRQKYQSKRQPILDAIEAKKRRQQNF

SMILES: COc1cc2c(Oc3ccc4[nH]c(C)cc4c3F)ncnc2cc1OCCCN1CCCC1
- inhibition (AKT1 (human); compound 0.02 µM): -0.8%
- inhibition (AKT1 (human); compound 0.2 µM): -3.1%
- inhibition (AKT3 (human); compound 0.02 µM): -3.5%
- inhibition (AKT3 (human); compound 0.2 µM): -4.2%
- inhibition (AURKB (human); compound 0.02 µM): 4.5%
- inhibition (AURKB (human); compound 0.2 µM): 8.3%
- inhibition (AXL (human); compound 0.02 µM): 6.9%
- inhibition (AXL (human); compound 0.2 µM): 17.7%
- inhibition (CAMK4 (human); compound 0.02 µM): -4%
- inhibition (CAMK4 (human); compound 0.2 µM): -0.6%
- inhibition (CLK3 (human); compound 0.02 µM): 11.9%
- inhibition (CLK3 (human); compound 0.2 µM): -4.2%
- inhibition (CSNK1G3 (human); compound 0.02 µM): 2.8%
- inhibition (CSNK1G3 (human); compound 0.2 µM): -1.8%
- inhibition (EPHA3 (human); compound 0.02 µM): -6.9%
- inhibition (EPHA3 (human); compound 0.2 µM): -1.2%
- inhibition (EPHA4 (human); compound 0.02 µM): -4.1%
- inhibition (EPHA4 (human); compound 0.2 µM): -2.4%
- inhibition (EPHA6 (human); compound 0.02 µM): 37.1%
- inhibition (EPHA6 (human); compound 0.2 µM): 95.9%
- inhibition (EPHA8 (human); compound 0.02 µM): -3.2%
- inhibition (EPHA8 (human); compound 0.2 µM): 4.7%
- inhibition (FLT3 (human); compound 0.02 µM): 10%
- inhibition (FLT3 (human); compound 0.2 µM): 9.8%
- inhibition (GSK3A (human); compound 0.02 µM): 3.5%
- inhibition (GSK3A (human); compound 0.2 µM): 2.1%
- inhibition (HCK (human); compound 0.02 µM): 0.4%
- inhibition (HCK (human); compound 0.2 µM): 21.1%
- inhibition (INSRR (human); compound 0.02 µM): -0.3%
- inhibition (INSRR (human); compound 0.2 µM): 13.3%
- inhibition (MAPK13 (human); compound 0.02 µM): -2.9%
- inhibition (MAPK13 (human); compound 0.2 µM): -3.4%
- inhibition (MAPK3 (human); compound 0.02 µM): -1.5%
- inhibition (MAPK3 (human); compound 0.2 µM): -5%
- inhibition (MAPK8 (human); compound 0.02 µM): -2.8%
- inhibition (MAPK8 (human); compound 0.2 µM): -2.5%
- inhibition (MAPK9 (human); compound 0.02 µM): -9.4%
- inhibition (MAPK9 (human); compound 0.2 µM): -7.7%
- inhibition (MAPKAPK3 (human); compound 0.02 µM): 1.1%
- inhibition (MAPKAPK3 (human); compound 0.2 µM): -0.2%
- inhibition (MERTK (human); compound 0.02 µM): 3.6%
- inhibition (MERTK (human); compound 0.2 µM): 5.9%
- inhibition (MKNK1 (human); compound 0.02 µM): -2.9%
- inhibition (MKNK1 (human); compound 0.2 µM): 2.6%
- inhibition (NTRK1 (human); compound 0.02 µM): 3.4%
- inhibition (NTRK1 (human); compound 0.2 µM): 3.9%
- inhibition (PDK4 (human); compound 0.02 µM): 2.7%
- inhibition (PDK4 (human); compound 0.2 µM): 1.6%
- inhibition (PRKACB (human); compound 0.02 µM): 6.8%
- inhibition (PRKACB (human); compound 0.2 µM): -7.7%
- inhibition (RET (human); compound 0.02 µM): 76.8%
- inhibition (RET (human); compound 0.2 µM): 98.7%
- inhibition (ROCK2 (human); compound 0.02 µM): -2.2%
- inhibition (ROCK2 (human); compound 0.2 µM): -4.8%
- inhibition (RPS6KA1 KD1 KD2 (human); compound 0.02 µM): -3.4%
- inhibition (RPS6KA1 KD1 KD2 (human); compound 0.2 µM): -3.3%
- inhibition (RPS6KA2 KD1 KD2 (human); compound 0.02 µM): 3.9%
- inhibition (RPS6KA2 KD1 KD2 (human); compound 0.2 µM): 2.2%
- inhibition (RPS6KA3 KD1 KD2 (human); compound 0.02 µM): 0.1%
- inhibition (RPS6KA3 KD1 KD2 (human); compound 0.2 µM): -1.8%
- inhibition (SGK1 (human); compound 0.02 µM): 5.2%
- inhibition (SGK1 (human); compound 0.2 µM): 0.4%
- inhibition (STK38L (human); compound 0.02 µM): 8.9%
- inhibition (STK38L (human); compound 0.2 µM): -0.2%
- inhibition (STK4 (human); compound 0.02 µM): -4.5%
- inhibition (STK4 (human); compound 0.2 µM): 9%
- inhibition (TBK1 (human); compound 0.02 µM): -1.8%
- inhibition (TBK1 (human); compound 0.2 µM): -1.6%

SMILES: Cc1ccc(Nc2nccc(N(C)c3ccc4c(C)n(C)nc4c3)n2)cc1S(N)(=O)=O
- inhibition (AKT1 (human); compound 0.02 µM): -2.3%
- inhibition (AKT1 (human); compound 0.2 µM): -2.2%
- inhibition (AKT3 (human); compound 0.02 µM): -3.2%
- inhibition (AKT3 (human); compound 0.2 µM): -2.6%
- inhibition (AURKB (human); compound 0.02 µM): 2.7%
- inhibition (AURKB (human); compound 0.2 µM): 12.5%
- inhibition (AXL (human); compound 0.02 µM): 1.7%
- inhibition (AXL (human); compound 0.2 µM): 10.3%
- inhibition (CAMK4 (human); compound 0.02 µM): -2.8%
- inhibition (CAMK4 (human); compound 0.2 µM): -1.2%
- inhibition (CLK3 (human); compound 0.02 µM): -3.9%
- inhibition (CLK3 (human); compound 0.2 µM): 9.6%
- inhibition (CSNK1G3 (human); compound 0.02 µM): 0.7%
- inhibition (CSNK1G3 (human); compound 0.2 µM): -0.3%
- inhibition (EPHA3 (human); compound 0.02 µM): -4.8%
- inhibition (EPHA3 (human); compound 0.2 µM): -4.4%
- inhibition (EPHA4 (human); compound 0.02 µM): -4.7%
- inhibition (EPHA4 (human); compound 0.2 µM): 0.2%
- inhibition (EPHA6 (human); compound 0.02 µM): 3.8%
- inhibition (EPHA6 (human); compound 0.2 µM): 22.3%
- inhibition (EPHA8 (human); compound 0.02 µM): -1.1%
- inhibition (EPHA8 (human); compound 0.2 µM): 10.8%
- inhibition (FLT3 (human); compound 0.02 µM): 24.7%
- inhibition (FLT3 (human); compound 0.2 µM): 69.9%
- inhibition (GSK3A (human); compound 0.02 µM): 1.8%
- inhibition (GSK3A (human); compound 0.2 µM): 5.1%
- inhibition (HCK (human); compound 0.02 µM): 2.6%
- inhibition (HCK (human); compound 0.2 µM): 25.1%
- inhibition (INSRR (human); compound 0.02 µM): 0.1%
- inhibition (INSRR (human); compound 0.2 µM): 0.3%
- inhibition (MAPK13 (human); compound 0.02 µM): -3.6%
- inhibition (MAPK13 (human); compound 0.2 µM): -3.8%
- inhibition (MAPK3 (human); compound 0.02 µM): -5%
- inhibition (MAPK3 (human); compound 0.2 µM): -2.7%
- inhibition (MAPKAPK3 (human); compound 0.02 µM): 2.3%
- inhibition (MAPKAPK3 (human); compound 0.2 µM): 1.6%
- inhibition (MERTK (human); compound 0.02 µM): 3%
- inhibition (MERTK (human); compound 0.2 µM): 15.6%
- inhibition (MKNK1 (human); compound 0.02 µM): 6.1%
- inhibition (MKNK1 (human); compound 0.2 µM): 3.1%
- inhibition (NTRK1 (human); compound 0.02 µM): 7%
- inhibition (NTRK1 (human); compound 0.2 µM): 16.7%
- inhibition (PDK4 (human); compound 0.02 µM): -0.5%
- inhibition (PDK4 (human); compound 0.2 µM): 0.8%
- inhibition (PRKACB (human); compound 0.02 µM): -1.5%
- inhibition (PRKACB (human); compound 0.2 µM): -7.3%
- inhibition (RET (human); compound 0.02 µM): 32.3%
- inhibition (RET (human); compound 0.2 µM): 82.1%
- inhibition (ROCK2 (human); compound 0.02 µM): -3.7%
- inhibition (ROCK2 (human); compound 0.2 µM): -1.3%
- inhibition (RPS6KA1 KD1 KD2 (human); compound 0.02 µM): 0.5%
- inhibition (RPS6KA1 KD1 KD2 (human); compound 0.2 µM): 5.4%
- inhibition (RPS6KA2 KD1 KD2 (human); compound 0.02 µM): 6.3%
- inhibition (RPS6KA2 KD1 KD2 (human); compound 0.2 µM): 8.4%
- inhibition (RPS6KA3 KD1 KD2 (human); compound 0.02 µM): 0.7%
- inhibition (RPS6KA3 KD1 KD2 (human); compound 0.2 µM): 3.1%
- inhibition (SGK1 (human); compound 0.02 µM): -0.7%
- inhibition (SGK1 (human); compound 0.2 µM): -4.1%
- inhibition (STK38L (human); compound 0.02 µM): -1.5%
- inhibition (STK38L (human); compound 0.2 µM): 6.6%
- inhibition (STK4 (human); compound 0.02 µM): -4.7%
- inhibition (STK4 (human); compound 0.2 µM): -5.1%
- inhibition (TBK1 (human); compound 0.02 µM): -0.2%
- inhibition (TBK1 (human); compound 0.2 µM): -1.1%

From the kinase profiling compilation of Christmann-Franck et al. (2016)
